Measurements published in patent US8163766B2, “Beta-secretase modulators and methods of use” (Amgen Inc., priority 2005, dated 2012).

tested on: Aβ 40 in conditioned media of cells stably expressing Amyloid Precursor Protein (APP); test: BACE Cell-Based Assay (Aβ40 in conditioned medium, sandwich ELISA); conditions: 24 hours of incubation with the test compounds, Aβ 40 by sandwich ELISA, read-out: IC50 values in the cell-based assay (inhibition of Aβ 40)
Procedure: The cell-based assay measures inhibition or reduction of Aβ40 in conditioned medium of test compound treated cells, which express amyloid precursor protein.
Cells stably expressing Amyloid Precursor Protein (APP) were plated at a density of 40K cells/well in 96 well plates (Costar). The cells were cultivated for 24 h at 37° C. and 5% CO2 in DMEM supplemented with 10% FBS. The test compounds were then added to cells in 10-point dose response concentrations with the starting concentration being either 100 μM or 10 μM. The compounds were diluted from stock solutions in DMSO and the final DMSO concentration of the test compounds on cells was 0.1%. After 24 hours of incubation with the test compounds the supernatant conditioned media was collected and the Aβ 40 levels were determined using a sandwich ELISA. The IC50 of the compound was calculated from the percent of control or percent inhibition of Aβ 40 as a function of the concentration of the test compound.
The sandwich ELISA to detect Aβ 40 was performed in 96 well microtiter plates, which were pre-treated with goat anti-rabbit IgG (Pierce). The capture and detecting antibody pair that were used to detect Aβ 40 from cell supernatants were affinity purified pAb40 (Biosource) and biotinylated 6E10 (Signet Labs Inc.), respectively. The optimal concentration for the pAb40 antibody was 3 μg/ml in Superblock/TBS (Pierce) that was supplemented with 0.05% Tween 20 (Sigma). Optimal concentration for the detection antibody 6E10-biotinylated was […] in Superblock/TBS (Pierce) that had been supplemented with 2% normal goat serum and 2% normal mouse serum.
Cellular supernatants were incubated with the capture antibody for 3 h at 4° C., followed by 3 wash steps in TBS-tween (0.05%). The detecting antibody incubation was for 2 h at 4° C., again followed by the wash steps as described previously. The final readout of the ELISA is Time-Resolved Fluorescence (counts per minute) using Delfia reagents Streptavidin-Europium and Enhancement solutions (Perkin Elmer) and the Victor 2 multilabel counter (Perkin Elmer).

IC50, ≤ 5 µM:
CCc1ccc2c(c1)C(NC[C@@H](O)[C@H](Cc1ccccc1)NC(=O)c1cc(N(C)C)c(=O)n(C3CCCC3)c1)CC1(CCCC1)O2 (stereo partly drawn) [Example 19, 1-cyclopentyl-5-(dimethylamino)-N-((2S,3R)-4-(6-ethyl-2,2-spirocyclopentylchroman-4-ylamino)-3-hydrodroxy-1-phenylbutan-2-yl)-6-oxo-1,6-dihydropyridine-3-carboxamide]
CCc1ccc2c(c1)C(NC[C@@H](O)[C@H](Cc1ccccc1)NC(=O)c1cc(-c3cnccn3)c(=O)n(C3CCCC3)c1)CC1(CCCC1)O2 (stereo partly drawn) [Example 22, 1-cyclopentyl-N-((2S,3R)-4-(6-ethyl-2,2-spirocyclopentylchroman-4-ylamino)-3-hydrodroxy-1-phenylbutan-2-yl)-6-oxo-5-(pyrazin-2-yl)-1,6-dihydropyridine-3-carboxamide]
CCc1ccc2c(c1)C(NC[C@@H](O)[C@H](Cc1ccccc1)NC(=O)c1cc(C3CCCCO3)c(=O)n(C3CCCC3)c1)CC1(CCCC1)O2 (stereo partly drawn) [Example 23, 1-cyclopentyl-N-((2S,3R)-4-(6-ethyl-2,2-spirocyclopentylchroman-4-ylamino)-3-hydrodroxy-1-phenylbutan-2-yl)-6-OXO-5-(tetrahydro-2H-pyran-2-yl)-1,6-dihydropyridine-3-carboxamide]
CCc1ccc2c(c1)C(NC[C@@H](O)[C@H](Cc1ccccc1)NC(=O)c1cc(C3CCCO3)c(=O)n(C3CCCC3)c1)CC1(CCCC1)O2 (stereo partly drawn) [Example 24, 1-cyclopentyl-N-((2S,3R)-4-(6-ethyl-2,2-spirocyclopentylchroman-4-ylamino)-3-hydrodroxy-1-phenylbutan-2-yl)-6-OXO-5-(tetrahydrofuran-2-yl)-1,6-dihydropyridine-3-carboxamide]
CCc1ccc2c(c1)[C@@H](NC[C@@H](O)[C@H](Cc1ccccc1)NC(=O)C1CN(Cc3ccccc3)CCO1)CC1(CCCC1)O2 (stereo partly drawn) [Example 29, 4-Benzyl-N-((2S,3R)-4-((S)-6-ethyl-2,2-spirocyclopentylchroman-4-ylamino)-3-hydroxy-1-phenylbutan-2-yl) morpholine-2-carboxamide]
CC(C)c1ccc2c(c1)[C@@H](NC[C@@H](O)[C@H](Cc1ccccc1)NC(=O)C1CCCN(c3ccccn3)C1)CC1(CCCC1)O2 (stereo partly drawn) [Example 32, N-((2S,3R)-3-hydroxy-4-((S)-6-isopropyl-2,2-spirocyclopentylchroman-4-ylamino)-1-phenylbutan-2-yl)-1-(pyridin-2-yl)piperidine-3-carboxamide]
CCc1ccc2c(c1)[C@@H](NC[C@@H](O)[C@H](Cc1ccccc1)NC(=O)C1CN(C3CCCC3)c3ccccc3O1)CC1(CCCC1)O2 (stereo partly drawn) [Example 43, 4-Cyclopentyl-N-((2S,3R)-4-((S)-6-ethyl-2,2-spirocyclopentylchroman-4-ylamino)-3-hydroxy-1-phenylbutan-2-yl)-3,4-dihydro-2H-benzo[b][1,4]oxazine-2-carboxamide]
CCc1ccc2c(c1)[C@@H](NC[C@@H](O)[C@H](Cc1ccccc1)NC(=O)[C@H]1CN(C)c3ccccc3O1)CC1(CCCC1)O2 [Example 47, (R)—N-((2S,3R)-4-((S)-6-ethyl-2,2-spirocyclopentylchroman-4-ylamino)-3-hydroxy-1-phenylbutan-2-yl)-4-methyl-3,4-dihydro-2H-benzo[b][1,4]oxazine-2-carboxamide]
CCc1ccc2c(c1)[C@@H](NC[C@@H](O)[C@H](Cc1ccccc1)NC(=O)C1CN(C)c3ccccc3O1)CC1(CCCC1)O2 (stereo partly drawn) [Example 48, (S)—N-((2S,3R)-4-((S)-6-ethyl-2,2-spirocyclopentylchroman-4-ylamino)-3-hydroxy-1-phenylbutan-2-yl)-4-methyl-3,4-dihydro-2H-benzo[b][1,4]oxazine-2-carboxamide]
